In patent US11071731B2, “Allosteric modulators of the mu opioid receptor” (Chiromics, LLC, priority 2017, dated 2021):

Assays:
mu opioid receptor (MOR) [1] = target: T1, mu opioid receptor (MOR) (Homo sapiens, UniProt P35372); experiment: PathHunter β-arrestin recruitment assay, PAM mode with EC20 endomorphin-1; type: cell-based; conditions: for β-arr Max. Resp.: maximal response for β-arrestin recruitment; for EC50: β-arrestin recruitment, read-out: β-arr. EC50
Method in brief: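 β-Arrestin recruitment to the receptor was tracked by chemiluminescent β-galactosidase activity from complementing fragments (ED on receptor, EA on β-arrestin). Per-compound outputs were EC50 and percent maximal response.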

mu opioid receptor (MOR) [2] = target: T1, mu opioid receptor (MOR); experiment: Hit Hunter cAMP signaling assay (adenylyl cyclase inhibition), PAM mode with EC20 endomorphin-1; type: cell-based; conditions: for cAMP Max. Resp.: maximal response for adenylyl cyclase inhibition
[3] = cAMP EC50, adenylyl cyclase inhibition
[4] = adenylyl cyclase inhibition, read-out: cAMP EC50

T1 sequence (P35372 whole entry, the tested form may be a part): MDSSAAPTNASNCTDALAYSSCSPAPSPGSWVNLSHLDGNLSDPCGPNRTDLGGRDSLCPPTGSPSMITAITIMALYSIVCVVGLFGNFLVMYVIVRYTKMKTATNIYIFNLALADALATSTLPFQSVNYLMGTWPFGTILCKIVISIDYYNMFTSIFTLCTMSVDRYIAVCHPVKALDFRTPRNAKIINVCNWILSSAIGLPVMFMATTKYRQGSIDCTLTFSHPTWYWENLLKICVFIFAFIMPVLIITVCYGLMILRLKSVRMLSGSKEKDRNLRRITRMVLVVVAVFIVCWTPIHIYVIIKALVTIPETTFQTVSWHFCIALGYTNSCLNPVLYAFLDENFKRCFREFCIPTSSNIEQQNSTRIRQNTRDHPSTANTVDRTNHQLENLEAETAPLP

Compound | β-arr Max. Resp. (mu opioid receptor (MOR) [1]) | EC50 (mu opioid receptor (MOR) [1]) [nM] | EC50 (mu opioid receptor (MOR) [2]; [3]) [nM] | cAMP Max. Resp. (mu opioid receptor (MOR) [2]) | EC50 (mu opioid receptor (MOR) [2]; [4]) [nM] | EC50 (mu opioid receptor (MOR) [2]) [nM]
COc1ccc(C2CCCCN2c2nc(Cl)ncc2F)cc1C(F)(F)F (centres unmarked) [compound 289] | F (F represents a maximal response of > 60%) | 700 to 2100 | > 2100 | D (D represents a maximal response of < 40%) | – | –
Fc1cc(C2CCCCN2c2nc(Cl)ncc2F)ccc1Br (centres unmarked) [compound 290] | F (F represents a maximal response of > 60%) | < 700 | < 700 | D (D represents a maximal response of < 40%) | – | –
Fc1cnc(Cl)nc1N1CCCCC1c1ccc2cnnn2c1 (centres unmarked) [compound 291] | D (D represents a maximal response of < 40%) | > 2100 | > 2100 | F (F represents a maximal response of > 60%) | – | –
OC1CCN(c2nc(Cl)ncc2F)C(c2ccc(F)c(Cl)c2)C1 (centres unmarked) [compound 293] | F (F represents a maximal response of > 60%) | > 2100 | 700 to 2100 | F (F represents a maximal response of > 60%) | – | –
COc1ccc(C2CCCCN2c2nc(Cl)ncc2F)cc1OC (centres unmarked) [compound 294] | D (D represents a maximal response of < 40%) | > 2100 | > 2100 | F (F represents a maximal response of > 60%) | – | –
COc1ncc(N2CCCCC2c2cccc(C(F)(F)F)c2)c(F)n1 (centres unmarked) [compound 295] | D (D represents a maximal response of < 40%) | > 2100 | – | D (D represents a maximal response of < 40%) | > 2100 | –
COc1ncc(N2CCCCC2c2cccc(F)n2)c(F)n1 (centres unmarked) [compound 296] | D (D represents a maximal response of < 40%) | > 2100 | – | D (D represents a maximal response of < 40%) | > 2100 | –
Fc1ccc(C2CCCCN2c2nc(Cl)ncc2F)cn1 (centres unmarked) [compound 297] | E (E represents a maximal response of 40-60%) | – | – | E (E represents a maximal response of 40-60%) | – | > 2100
Fc1cnc(Cl)nc1N1CCCCC1c1cccc(C(F)F)c1 (centres unmarked) [compound 298] | F (F represents a maximal response of > 60%) | > 2100 | < 700 | F (F represents a maximal response of > 60%) | – | –
Fc1ccc(C2CCCCN2c2nc(Cl)ncc2F)cc1C(F)F (centres unmarked) [compound 299] | F (F represents a maximal response of > 60%) | 700 to 2100 | < 700 | F (F represents a maximal response of > 60%) | – | –
Cn1cnc2cc(C(F)(F)F)cc(C3CCCCN3c3nc(Cl)ncc3F)c21 (centres unmarked) [compound 300] | E (E represents a maximal response of 40-60%) | > 2100 | > 2100 | F (F represents a maximal response of > 60%) | – | –
Fc1cc(C2CCC(OCCN3CCOCC3)CN2c2nc(Cl)ncc2F)cc(C(F)(F)F)c1 (centres unmarked) [compound 304] | D (D represents a maximal response of < 40%) | > 2100 | – | D (D represents a maximal response of < 40%) | > 2100 | –
OC1CCC(c2cc(F)cc(C(F)(F)F)c2)N(c2nc(Cl)ncc2F)C1 (centres unmarked) [compound 311] | F (F represents a maximal response of > 60%) | > 2100 | 700 to 2100 | F (F represents a maximal response of > 60%) | – | –
Fc1cc(C2CCC(F)CN2c2nc(Cl)ncc2F)cc(C(F)(F)F)c1 (centres unmarked) [compound 312] | F (F represents a maximal response of > 60%) | < 700 | – | F (F represents a maximal response of > 60%) | < 700 | –
Fc1cc(C2CCC(F)CN2c2nc(Cl)ncc2F)cc(C(F)(F)F)c1 (centres unmarked) [compound 313] | F (F represents a maximal response of > 60%) | > 2100 | – | E (E represents a maximal response of 40-60%) | 700 to 2100 | –
